Assay results as given in patent EP0025288A1, “Derivatives of monic acid, processes for their preparation, compositions containing them and their preparation” (priority 1979, dated 1981).
In brackets after ≈: the same amount, converted by molar mass.

What was measured:
Past Haemolytica PA5 = assay: MIC, veterinary bacteria; type: cell-based; conditions: veterinary bacteria (Table 2), read-out: MIC
[1] = system: Staph aureus B4 (pen resis); assay: MIC, veterinary bacteria; type: cell-based; conditions: Staphylococcus aureus, veterinary bacteria (Table 2), read-out: MIC
M. gallisepticum S6 = assay: MIC, anti-mycoplasmal, Friis broth solidified with 0.9% agarose; type: cell-based; conditions: Mycoplasmoides gallisepticum, 144 h, inoculum 10^3 to 10^5 C.F.U., 6 days incubation at 37°C, read-out: in vitro MIC
[2] = system: Strep suis (group D) SPS11; assay: MIC, veterinary bacteria; type: cell-based; conditions: veterinary bacteria (Table 2), read-out: MIC
[3] = system: Staph aureus 152 (pen sens); assay: MIC, veterinary bacteria; type: cell-based; conditions: Staphylococcus aureus, veterinary bacteria (Table 2), read-out: MIC
M. pneumoniae ATCC 15492 = assay: MIC, anti-mycoplasmal, Friis broth solidified with 0.9% agarose; type: cell-based; conditions: Mycoplasmoides pneumoniae, ATCC15492, 144 h, inoculum 10^3 to 10^5 C.F.U., 6 days incubation at 37°C, read-out: in vitro MIC
[4] = system: Corynebacterium pyogenes CY1; assay: MIC, veterinary bacteria; type: cell-based; conditions: veterinary bacteria (Table 2), read-out: MIC
M. suipneumoniae JF 435 = assay: MIC, anti-mycoplasmal, Friis broth solidified with 0.9% agarose; type: cell-based; conditions: Mesomycoplasma hyopneumoniae, JF435, 144 h, inoculum 10^3 to 10^5 C.F.U., 6 days incubation at 37°C, read-out: in vitro MIC
M. dispar NCTC 10125 = assay: as above; type: cell-based; conditions: 144 h, inoculum 10^3 to 10^5 C.F.U., 6 days incubation at 37°C, read-out: in vitro MIC
M. hyorhinis ATCC 25021 = assay: as above; type: cell-based; conditions: Mesomycoplasma hyorhinis, ATCC25021, 144 h, inoculum 10^3 to 10^5 C.F.U., 6 days incubation at 37°C, read-out: in vitro MIC
Past multocida PA1 = assay: MIC, veterinary bacteria; type: cell-based; conditions: veterinary bacteria (Table 2), read-out: MIC
M. suipneumoniae HK(2) = assay: MIC, anti-mycoplasmal, Friis broth solidified with 0.9% agarose; type: cell-based; conditions: Mesomycoplasma hyopneumoniae, 144 h, inoculum 10^3 to 10^5 C.F.U., 6 days incubation at 37°C, read-out: in vitro MIC
M. suipneumoniae MS 16 = assay: as above; type: cell-based; conditions: Mesomycoplasma hyopneumoniae, MS16, 144 h, inoculum 10^3 to 10^5 C.F.U., 6 days incubation at 37°C, read-out: in vitro MIC
[5] = system: M. suipneumoniae J2206/183b; assay: as above; type: cell-based; conditions: Mesomycoplasma hyopneumoniae, 144 h, inoculum 10^3 to 10^5 C.F.U., 6 days incubation at 37°C, read-out: in vitro MIC
[6] = system: M. bovigenitalium ATCC 14173; assay: as above; type: cell-based; conditions: 144 h, inoculum 10^3 to 10^5 C.F.U., 6 days incubation at 37°C, read-out: in vitro MIC
S dublin S7 = assay: MIC, veterinary bacteria; type: cell-based; conditions: veterinary bacteria (Table 2), read-out: MIC
M. suipneumoniae LABER = assay: MIC, anti-mycoplasmal, Friis broth solidified with 0.9% agarose; type: cell-based; conditions: Mesomycoplasma hyopneumoniae, 144 h, inoculum 10^3 to 10^5 C.F.U., 6 days incubation at 37°C, read-out: in vitro MIC
[7] = system: M. suipneumoniae ATCC 25095; assay: as above; type: cell-based; conditions: Mesomycoplasma hyopneumoniae, ATCC25095, 144 h, inoculum 10^3 to 10^5 C.F.U., 6 days incubation at 37°C, read-out: in vitro MIC
E coli E1 = assay: MIC, veterinary bacteria; type: cell-based; conditions: veterinary bacteria (Table 2), read-out: MIC
[8] = system: Erysipelothrix rhusiopathiae NCTC 8163; assay: MIC, veterinary bacteria; type: cell-based; conditions: NCTC8163, veterinary bacteria (Table 2), read-out: MIC
E coli NCTC 10418 = assay: MIC, veterinary bacteria; type: cell-based; conditions: veterinary bacteria (Table 2), read-out: MIC
M. suipneumoniae NB12 = assay: MIC, anti-mycoplasmal, Friis broth solidified with 0.9% agarose; type: cell-based; conditions: Mesomycoplasma hyopneumoniae, 144 h, inoculum 10^3 to 10^5 C.F.U., 6 days incubation at 37°C, read-out: in vitro MIC
M. hyorhinis ATCC 23234 = assay: as above; type: cell-based; conditions: Mesomycoplasma hyorhinis, ATCC23234, 144 h, inoculum 10^3 to 10^5 C.F.U., 6 days incubation at 37°C, read-out: in vitro MIC
Bord bronchisptica BO9 = assay: MIC, veterinary bacteria; type: cell-based; conditions: veterinary bacteria (Table 2), read-out: MIC
Strep agalactiae SPA1 = assay: MIC, veterinary bacteria; type: cell-based; conditions: veterinary bacteria (Table 2), read-out: MIC
M. suipneumoniae TAM 6N = assay: MIC, anti-mycoplasmal, Friis broth solidified with 0.9% agarose; type: cell-based; conditions: Mesomycoplasma hyopneumoniae, TAM6N, 144 h, inoculum 10^3 to 10^5 C.F.U., 6 days incubation at 37°C, read-out: in vitro MIC
Bord bronchiseptica BO8 = assay: MIC, veterinary bacteria; type: cell-based; conditions: veterinary bacteria (Table 2), read-out: MIC
[9] = system: M. suipneumoniae NCTC 10110; assay: MIC, anti-mycoplasmal, Friis broth solidified with 0.9% agarose; type: cell-based; conditions: Mesomycoplasma hyopneumoniae, NCTC10110, 144 h, inoculum 10^3 to 10^5 C.F.U., 6 days incubation at 37°C, read-out: in vitro MIC
M. bovis NCTC 10131 = assay: microbe, parasite or virus in culture; type: cell-based; conditions: NCTC10131, 144 h, read-out: in vitro MIC
Strep dysgalaciae SPD1 = assay: MIC, veterinary bacteria; type: cell-based; conditions: veterinary bacteria (Table 2), read-out: MIC
M. suipneumoniae Str. 11 = assay: MIC, anti-mycoplasmal, Friis broth solidified with 0.9% agarose; type: cell-based; conditions: Mesomycoplasma hyopneumoniae, 144 h, inoculum 10^3 to 10^5 C.F.U., 6 days incubation at 37°C, read-out: in vitro MIC
[10] = system: M. suipneumoniae PW/C/210; assay: as above; type: cell-based; conditions: Mesomycoplasma hyopneumoniae, 144 h, inoculum 10^3 to 10^5 C.F.U., 6 days incubation at 37°C, read-out: in vitro MIC
M. suipneumoniae UCD 1 = assay: as above; type: cell-based; conditions: Mesomycoplasma hyopneumoniae, UCD1, 144 h, inoculum 10^3 to 10^5 C.F.U., 6 days incubation at 37°C, read-out: in vitro MIC
Past multocida PA2 = assay: MIC, veterinary bacteria; type: cell-based; conditions: veterinary bacteria (Table 2), read-out: MIC
[11] = Serum binding by ultrafiltration; type: in vitro ADME, pig; conditions: pig, serum, compounds at 8 mcg/ml, microbiological assay (B. subtilis ATCC 6633), read-out: % bound to pig serum (converted)
Description: Serum binding was assessed by ultrafiltration of procine serum containing compounds at 8 mcg/ml, and through an Amicon CF50A ultrafiltration cone. Separation of ultrafiltrate was achieved by centrifugation.

CC(=CC(=O)OCCCC(=O)c1ccccc1)CC1OCC(CC2OC2C(C)C(C)O)C(O)C1O (centres unmarked) [Example 5, 4-Phenylbutan-4-onyl monate A]
MIC (Past Haemolytica PA5): 10 µg/mL (≈ 20.4 µM) | MIC [1]: 0.156 µg/mL (≈ 0.318 µM) | MIC (M. gallisepticum S6): 1 µg/mL (≈ 2.04 µM) | MIC [2]: 5 µg/mL (≈ 10.2 µM) | MIC [3]: 0.156 µg/mL (≈ 0.318 µM) | MIC (M. pneumoniae ATCC 15492): 1 µg/mL (≈ 2.04 µM) | MIC [4]: > 80 µg/mL | MIC (M. suipneumoniae JF 435): 0.5 µg/mL (≈ 1.02 µM) | MIC (M. dispar NCTC 10125): 0.1 µg/mL (≈ 0.204 µM) | MIC (M. hyorhinis ATCC 25021): 0.25 µg/mL (≈ 0.51 µM) | MIC (Past multocida PA1): 1.25 µg/mL (≈ 2.55 µM) | MIC (M. suipneumoniae HK(2)): 0.5 µg/mL (≈ 1.02 µM) | MIC (M. suipneumoniae MS 16): 0.25 µg/mL (≈ 0.51 µM) | MIC [5]: 0.5 µg/mL (≈ 1.02 µM) | MIC [6]: 0.025 µg/mL (≈ 0.051 µM) | MIC (S dublin S7): > 80 µg/mL | MIC (M. suipneumoniae LABER): 0.25 µg/mL (≈ 0.51 µM) | MIC [7]: 0.25 µg/mL (≈ 0.51 µM) | MIC (E coli E1): 80 µg/mL (≈ 163 µM) | MIC [8]: 40 µg/mL (≈ 81.5 µM) | MIC (E coli NCTC 10418): 80 µg/mL (≈ 163 µM) | MIC (M. suipneumoniae NB12): 0.5 µg/mL (≈ 1.02 µM) | MIC (M. hyorhinis ATCC 23234): 0.25 µg/mL (≈ 0.51 µM) | MIC (Bord bronchisptica BO9): 5 µg/mL (≈ 10.2 µM) | MIC (Strep agalactiae SPA1): 0.625 µg/mL (≈ 1.27 µM) | MIC (M. suipneumoniae TAM 6N): 0.5 µg/mL (≈ 1.02 µM) | MIC (Bord bronchiseptica BO8): 40 µg/mL (≈ 81.5 µM) | MIC [9]: 0.5 µg/mL (≈ 1.02 µM) | MIC (M. bovis NCTC 10131): ≤ 0.01 µg/mL | MIC (Strep dysgalaciae SPD1): 0.07 µg/mL (≈ 0.143 µM) | MIC (M. suipneumoniae Str. 11): 0.25 µg/mL (≈ 0.51 µM) | MIC [10]: 0.25 µg/mL (≈ 0.51 µM) | MIC (M. suipneumoniae UCD 1): 0.5 µg/mL (≈ 1.02 µM) | MIC (Past multocida PA2): 0.312 µg/mL (≈ 0.636 µM) | fraction unbound [11]: 0.036
